Measured values reported in article PMC6700816, “A novel starch-binding laccase from the wheat pathogen Zymoseptoria tritici highlights the functional diversity of ascomycete laccases” (BMC Biotechnology, 2019).

Target: T1, ZtrLac1A (Zymoseptoria tritici, UniProt F9XCG9)
T1 construct: gene MYCGRDRAFT_109666; mature protein residues 46-723, native signal peptide removed; catalytic module (556 residues) plus linker plus CBM20; secreted by Pichia pastoris X-33 (pPICZalphaA); N-glycosylated; 79 kDa calculated, 93 kDa on SDS-PAGE; EC 1.10.3.2
T1 sequence (F9XCG9 46-723): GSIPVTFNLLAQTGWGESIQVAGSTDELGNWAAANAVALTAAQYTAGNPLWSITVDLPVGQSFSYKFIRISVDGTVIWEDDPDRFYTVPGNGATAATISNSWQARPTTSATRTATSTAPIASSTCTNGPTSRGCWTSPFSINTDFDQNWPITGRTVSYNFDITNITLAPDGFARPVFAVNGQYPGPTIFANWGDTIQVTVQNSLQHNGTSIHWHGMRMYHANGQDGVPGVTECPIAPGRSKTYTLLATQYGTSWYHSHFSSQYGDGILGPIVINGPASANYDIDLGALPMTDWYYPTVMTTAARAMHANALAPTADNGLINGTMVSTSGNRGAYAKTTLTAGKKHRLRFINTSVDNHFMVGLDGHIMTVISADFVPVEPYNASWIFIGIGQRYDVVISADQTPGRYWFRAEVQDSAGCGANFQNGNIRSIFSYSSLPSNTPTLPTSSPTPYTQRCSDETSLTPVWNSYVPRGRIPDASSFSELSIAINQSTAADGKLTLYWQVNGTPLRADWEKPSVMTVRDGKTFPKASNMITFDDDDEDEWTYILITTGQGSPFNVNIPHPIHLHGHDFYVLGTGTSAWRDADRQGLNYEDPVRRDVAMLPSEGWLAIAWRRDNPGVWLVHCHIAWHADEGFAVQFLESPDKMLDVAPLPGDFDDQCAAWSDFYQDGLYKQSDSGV
Assay: isothermal titration calorimetry, one-site model
Conditions: 20 mM sodium acetate, pH 5.5, 25 °C; starch mimic, CBM20 starch-binding module, not the laccase active site
Source text: isothermal titration calorimetry, one-site model on ZtrLac1A | ZtrLac1A binds to β-CD with an association constant of Ka

OC[C@H]1O[C@@H]2O[C@H]3[C@H](O)[C@@H](O)[C@@H](O[C@H]4[C@H](O)[C@@H](O)[C@@H](O[C@H]5[C@H](O)[C@@H](O)[C@@H](O[C@H]6[C@H](O)[C@@H](O)[C@@H](O[C@H]7[C@H](O)[C@@H](O)[C@@H](O[C@H]8[C@H](O)[C@@H](O)[C@@H](O[C@H]1[C@H](O)[C@H]2O)O[C@@H]8CO)O[C@@H]7CO)O[C@@H]6CO)O[C@@H]5CO)O[C@@H]4CO)O[C@@H]3CO [β-CD, β-cyclodextrin]
Kd: 32.6 ± 2.4 µM
